Data as given in ChEMBL document CHEMBL1201862, “PubChem BioAssay data set” (2004).
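Growth conditions: 96-well plates. Treatment: test compound, 48 hours, 5 concentrations. Analysis: linear interpolation between bracketing concentrations; unreached endpoints set to highest concentration. GI50 = concentration required for 50% inhibition of growth.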 Active and inactive are the calls of the source. Cut-off read from the data, not from the text of the source: active = GI50 up to about 1.1 µM and inactive = higher.

What was measured:
Test in all cases: DTP human tumour cell line panel, 48 h
A549 = tested on: A549
SF-295 = tested on: SF-295
UACC-257 = tested on: UACC-257
SK-MEL-28 = tested on: SK-MEL-28
K562 = tested on: K562
EKVX = tested on: EKVX
ACHN = tested on: ACHN
HOP-62 = tested on: HOP-62
CAKI-1 = tested on: CAKI-1
UACC-62 = tested on: UACC-62
NCI-H23 = tested on: NCI-H23
A498 = tested on: A498
SNB-19 = tested on: SNB-19
HCT-116 = tested on: HCT-116
SF-268 = tested on: SF-268
TK-10 = tested on: TK-10
MOLT-4 = tested on: MOLT-4
KM12 = tested on: KM12

Measured: GI50

Cc1ccc(/N=N/C2S/C(=C(\C#N)c3nc4ccccc4[nH]3)N(c3ccccc3)C2=O)cc1 (centres undefined)
inactive: A549 88.1 µM | SF-295 42.6 µM | UACC-257 55 µM | SK-MEL-28 > 100 µM | K562 20.4 µM | EKVX > 100 µM | ACHN 34.1 µM | HOP-62 30.1 µM | CAKI-1 67.1 µM | UACC-62 > 100 µM | NCI-H23 86.7 µM | A498 > 100 µM | SNB-19 99.1 µM | HCT-116 90.2 µM | SF-268 > 100 µM | TK-10 36.9 µM

COc1cc(C2C(Cl)C(=O)N2NC(=O)c2ccc(N)cc2)ccc1O (centres undefined)
inactive: A549 > 100 µM | SF-295 67.8 µM | UACC-257 > 100 µM | SK-MEL-28 39.2 µM | MOLT-4 23.5 µM | K562 31.3 µM | EKVX 92 µM | ACHN > 100 µM | HOP-62 35.9 µM | KM12 25.1 µM | CAKI-1 25.5 µM | UACC-62 64.1 µM | NCI-H23 20.9 µM | A498 > 100 µM | SNB-19 25.3 µM | HCT-116 22.9 µM | TK-10 > 100 µM

N#Cc1cc([N+](=O)[O-])ccc1NC(=O)/C(=N/N)C(C(=O)c1ccc(Cl)c(Cl)c1)C1OC(=O)c2ccccc21 (centres undefined)
inactive: A549 23.7 µM | SF-295 26.4 µM | UACC-257 84.7 µM | SK-MEL-28 35.6 µM | MOLT-4 36.8 µM | K562 24.3 µM | EKVX 45 µM | ACHN 36.6 µM | HOP-62 54.6 µM | KM12 58.1 µM | CAKI-1 38.1 µM | UACC-62 31 µM | NCI-H23 25.1 µM | A498 29.4 µM | SNB-19 69.3 µM | HCT-116 39.1 µM | SF-268 59.8 µM

COc1ccc(OCC(=O)O)c2c1CCC(C)C2=O (centres undefined)
inactive: A549 > 100 µM | SF-295 > 100 µM | UACC-257 > 100 µM | SK-MEL-28 > 100 µM | MOLT-4 > 100 µM | K562 > 100 µM | EKVX > 100 µM | ACHN > 100 µM | HOP-62 > 100 µM | KM12 > 100 µM | CAKI-1 > 100 µM | UACC-62 > 100 µM | A498 > 100 µM | SNB-19 > 100 µM | HCT-116 > 100 µM | SF-268 > 100 µM | TK-10 > 100 µM

Cc1ccc(NC(=O)CC2C(=O)Nc3ccccc3S2(=O)=O)cc1C (centres undefined)
inactive: A549 > 100 µM | SF-295 > 100 µM | UACC-257 > 100 µM | SK-MEL-28 > 100 µM | MOLT-4 > 100 µM | K562 > 100 µM | EKVX > 100 µM | ACHN > 100 µM | CAKI-1 > 100 µM | UACC-62 84.7 µM | NCI-H23 > 100 µM | A498 > 100 µM | SNB-19 > 100 µM | HCT-116 > 100 µM | SF-268 > 10 µM | TK-10 > 100 µM

C=CC1(CC)/C(=N\O)C(CC)(CC)C(=O)N1O (centres undefined)
inactive: A549 > 100 µM | SF-295 > 100 µM | UACC-257 > 100 µM | SK-MEL-28 > 100 µM | MOLT-4 > 100 µM | K562 > 100 µM | EKVX > 100 µM | ACHN > 100 µM | HOP-62 > 100 µM | KM12 > 100 µM | CAKI-1 > 100 µM | UACC-62 > 100 µM | NCI-H23 > 100 µM | A498 > 100 µM | SNB-19 > 100 µM | HCT-116 > 100 µM | TK-10 > 100 µM

CC(=O)NNc1nc(C)c(C(=O)/C=C/c2ccc(Cl)c(Cl)c2)s1
inactive: A549 > 100 µM | SF-295 > 100 µM | UACC-257 > 100 µM | SK-MEL-28 > 100 µM | MOLT-4 > 100 µM | K562 > 100 µM | EKVX > 100 µM | ACHN > 100 µM | HOP-62 > 100 µM | KM12 > 100 µM | CAKI-1 > 100 µM | UACC-62 > 100 µM | NCI-H23 > 100 µM | A498 > 100 µM | SNB-19 > 100 µM | SF-268 > 100 µM | TK-10 > 100 µM

CN1C2(c3ccccc3)c3c(-c4ccccc4)sc(-c4ccccc4)c3C1(c1ccccc1)C1C(=O)N(c3ccccc3)C(=O)C12 (centres undefined)
inactive: A549 > 100 µM | SF-295 > 100 µM | UACC-257 > 100 µM | SK-MEL-28 > 100 µM | K562 > 100 µM | EKVX > 100 µM | ACHN > 100 µM | HOP-62 > 100 µM | KM12 > 100 µM | CAKI-1 > 100 µM | UACC-62 > 100 µM | NCI-H23 > 100 µM | A498 > 100 µM | SNB-19 > 100 µM | HCT-116 > 100 µM | SF-268 > 100 µM | TK-10 > 100 µM

CS(=O)(=O)c1ccc(-c2cc(-c3ccc(S(C)(=O)=O)cc3)[n+](-c3cc(-c4ccccc4)c([O-])c(-c4ccccc4)c3)c(-c3ccc(S(C)(=O)=O)cc3)c2)cc1
inactive: A549 > 100 µM | SF-295 > 100 µM | UACC-257 38.5 µM | SK-MEL-28 > 100 µM | MOLT-4 > 100 µM | K562 > 100 µM | EKVX > 100 µM | ACHN > 100 µM | HOP-62 > 100 µM | KM12 > 100 µM | CAKI-1 > 100 µM | UACC-62 > 100 µM | NCI-H23 > 100 µM | A498 44.7 µM | SNB-19 > 100 µM | HCT-116 > 100 µM | SF-268 > 100 µM | TK-10 > 100 µM

Cc1ccccc1-n1c(=S)[nH]c2c(sc(=O)n2-c2ccccc2C)c1=O
inactive: A549 > 100 µM | SF-295 > 100 µM | UACC-257 > 100 µM | SK-MEL-28 > 100 µM | MOLT-4 > 100 µM | K562 > 100 µM | EKVX > 100 µM | ACHN > 100 µM | HOP-62 > 100 µM | KM12 > 100 µM | CAKI-1 > 100 µM | UACC-62 > 100 µM | NCI-H23 > 100 µM | A498 > 100 µM | SNB-19 > 100 µM | HCT-116 > 100 µM | SF-268 > 100 µM

CN(C)/C=N\c1cc[nH]c(=O)n1
inactive: A549 > 100 µM | SF-295 > 100 µM | UACC-257 > 100 µM | SK-MEL-28 > 100 µM | K562 > 100 µM | EKVX > 100 µM | ACHN > 100 µM | HOP-62 > 100 µM | KM12 > 100 µM | CAKI-1 > 100 µM | UACC-62 > 100 µM | A498 > 100 µM | HCT-116 > 100 µM | SF-268 > 100 µM | TK-10 > 100 µM
